Each structure is given as a SMILES string.

Integrin alpha-4/beta-1, sequence (P05556 whole entry): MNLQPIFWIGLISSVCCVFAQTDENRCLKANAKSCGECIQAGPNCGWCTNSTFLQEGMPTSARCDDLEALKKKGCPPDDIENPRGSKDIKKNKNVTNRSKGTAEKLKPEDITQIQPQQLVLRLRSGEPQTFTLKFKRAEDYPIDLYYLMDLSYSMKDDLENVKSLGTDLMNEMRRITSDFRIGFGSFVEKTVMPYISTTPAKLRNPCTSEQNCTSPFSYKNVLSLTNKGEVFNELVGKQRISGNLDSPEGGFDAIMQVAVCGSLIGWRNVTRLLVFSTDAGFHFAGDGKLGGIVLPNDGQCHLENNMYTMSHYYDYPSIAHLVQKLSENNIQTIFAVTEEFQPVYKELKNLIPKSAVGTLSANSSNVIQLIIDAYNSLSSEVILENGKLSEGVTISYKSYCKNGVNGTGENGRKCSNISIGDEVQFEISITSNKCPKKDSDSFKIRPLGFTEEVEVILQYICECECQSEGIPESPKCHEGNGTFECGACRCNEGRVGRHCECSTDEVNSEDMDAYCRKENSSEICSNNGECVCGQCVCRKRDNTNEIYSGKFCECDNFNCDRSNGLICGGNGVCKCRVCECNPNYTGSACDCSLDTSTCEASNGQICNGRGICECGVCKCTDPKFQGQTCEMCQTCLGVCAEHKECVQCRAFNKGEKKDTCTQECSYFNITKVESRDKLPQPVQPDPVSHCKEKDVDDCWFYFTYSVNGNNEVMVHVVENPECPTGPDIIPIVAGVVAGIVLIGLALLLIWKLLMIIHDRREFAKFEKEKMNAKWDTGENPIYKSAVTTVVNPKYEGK
Integrin alpha-4/beta-1, sequence (P13612 whole entry): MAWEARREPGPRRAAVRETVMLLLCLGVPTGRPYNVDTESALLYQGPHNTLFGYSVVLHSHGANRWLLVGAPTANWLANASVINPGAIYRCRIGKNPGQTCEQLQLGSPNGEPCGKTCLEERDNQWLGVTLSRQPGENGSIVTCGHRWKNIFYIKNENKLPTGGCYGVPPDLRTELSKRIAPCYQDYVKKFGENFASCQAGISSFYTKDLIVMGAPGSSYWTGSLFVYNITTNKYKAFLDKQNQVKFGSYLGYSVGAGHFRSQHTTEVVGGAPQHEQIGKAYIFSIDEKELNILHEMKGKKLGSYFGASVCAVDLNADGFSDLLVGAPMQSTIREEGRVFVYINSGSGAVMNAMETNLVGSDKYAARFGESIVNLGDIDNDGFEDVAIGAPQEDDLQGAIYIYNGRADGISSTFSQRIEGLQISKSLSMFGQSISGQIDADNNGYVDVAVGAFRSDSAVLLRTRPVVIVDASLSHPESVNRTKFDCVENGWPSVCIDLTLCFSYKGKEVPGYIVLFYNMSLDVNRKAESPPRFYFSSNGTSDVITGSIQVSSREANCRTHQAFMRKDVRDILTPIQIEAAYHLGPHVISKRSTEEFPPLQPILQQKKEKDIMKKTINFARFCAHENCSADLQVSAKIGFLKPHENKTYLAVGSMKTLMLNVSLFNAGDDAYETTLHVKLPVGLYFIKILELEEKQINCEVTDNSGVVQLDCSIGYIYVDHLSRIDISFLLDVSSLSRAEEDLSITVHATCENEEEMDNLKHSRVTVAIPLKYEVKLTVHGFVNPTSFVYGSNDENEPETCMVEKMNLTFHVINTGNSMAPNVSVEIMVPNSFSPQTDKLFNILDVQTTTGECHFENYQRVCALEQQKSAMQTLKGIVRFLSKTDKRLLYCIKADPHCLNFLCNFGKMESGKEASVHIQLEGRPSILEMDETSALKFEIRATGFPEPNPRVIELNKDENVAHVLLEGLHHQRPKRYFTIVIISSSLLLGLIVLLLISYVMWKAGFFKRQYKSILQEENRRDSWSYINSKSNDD

The experiment concerns the target Integrin alpha-4/beta-1 (Homo sapiens, UniProt P05556+P13612). In words: Antagonist activity at alpha4beta1 integrin. Format: functional.
`CC(C)C(=O)Oc1cccc(OC(=O)C(C)C)c1-c1ccc(C[C@@H](NC(=O)[C@@]2(C)CCCN2S(=O)(=O)c2cc(Cl)cc(Cl)c2)C(=O)O)cc1`: the IC50 amounted to 4.5 nM.

`O=C(O)[C@@H](CSSCCNC(=O)C12CC3CC(CC(C3)C1)C2)NC12CC3CC(CC(C3)C1)C2` showed an IC50 of 4100 nM.

For the compound `CS(=O)(=O)CCCCC1(C(=O)N[C@H](Cc2ccc(NC(=O)c3c(Cl)cccc3Cl)cc2)C(=O)O)CCC1`, the IC50 was 6 nM.

Turning to `O=C(O)CC[C@H](NCS(=O)(=O)c1ccccc1)C(=O)N[C@@H](Cc1ccc(OCc2c(Cl)cccc2Cl)cc1)C(=O)O`, half-maximal inhibition (IC50) was put at 2 nM.

`O=C(Nc1ccc(C[C@H](NC(=O)[C@@H]2C3CCC(CC3)N2S(=O)(=O)c2ccccc2Cl)C(=O)O)cc1)c1cc(Cl)nc(Cl)c1` displayed an IC50 of 105 nM.

`CCCNc1c(N[C@@H](Cc2ccc(OCc3c(Cl)cccc3Cl)cc2)C(=O)O)c(=O)c1=O` came in with an IC50 of 67 nM.

`COc1cccc(OC)c1-c1ccc(C[C@@H](NC(=O)[C@@]2(C)CCN2S(=O)(=O)c2cc(Cl)cc(Cl)c2)C(=O)O)cc1` displayed an IC50 of 0.07 nM.

As for `COCCCC[C@@]1(C(=O)N[C@H](Cc2ccc(-c3c(OC)cccc3OC)cc2)C(=O)O)CCCO1`, the IC50 came out at 1.27 nM.

Compound `COc1ccccc1-c1ccc(C[C@H](NC(=O)Cc2ccccc2Cl)C(=O)O)cc1` gave an IC50 of 36.8 nM.

For the compound `COc1cccc(OC)c1-c1ccc(C[C@H](NC[C@@H]2CCCN2S(=O)(=O)c2cc(Cl)cc(Cl)c2)C(=O)O)cc1`, the IC50 was determined as 140 nM.

Values taken from ChEMBL document CHEMBL1828570, “Modeling the molecular basis for α4β1 integrin antagonism” (Bioorg Med Chem, 2011).
